In brackets after ≈: the same amount, converted by molar mass.
Key:
[1] = tested on: H1975 cells (EGFR L858R/T790M); assay: Inhibitory activity on cell proliferation, H1975; format: cell-based; details: Homo sapiens, NCI-H1975; H1975, 72 hours; read-out: Inhibitory activity on proliferation of cells (IC50, μM) H1975
Protocol: (§1) Cell proliferation activity was assessed by MTS assay. Cells were exposed to processing conditions for 72 hours and the number of cells used in each experiment for each cell line was adjusted based on absorbance values (absorbance values at 490 nm, 1.3-2.2). Six concentration gradients (0.1 nM-10 μM) were set for the compounds to be tested, wherein at least 6 sets of parallel controls for each concentration were used.
(§2) H1975, A431 cells were cultured in corresponding media, and cells were passaged at least twice after resuscitation and then used for experiments. Cells at Log phase were trypsinized and resuspended in culture medium. H1975 (1000 cells per well), A431 (2000 cells per well) were seeded in 96-well plates in a volume of 100 μL; and 6 sets of parallel controls and 7 columns were set. The plate was placed in a 37° C. 5% CO2 incubator overnight. Compounds were dissolved in DMSO to a concentration of […], and then the concentration was gradually diluted to 10 μM, 1 μM, 0.1 μM, 0.01 μM, 0.001 μM, 0.0001 μM per liter, respectively. 2 μL of the compound solution was added to 998 μL of medium, and the mixture was thoroughly mixed. 100 μL of the mixture was added to a 96-well plate. […] After culturing for 68 hours, 20 μL of MTT (5 mg/mL) was added. After 4 hours, the supernatant was discarded and 150 μL of DMSO was added. After shaking for 10 minutes, the plate was read with Synergy HT (Bio TeK) (OD490). Data were calculated using GraphPad Prism version 4.0 and IC50 values were obtained using a non-linear regression model of dose response curve.

EGFR-L858R/T790M = target: T1, EGFR-L858R/T790M (Homo sapiens, UniProt P00533, L858R/T790M); assay: Kinase activity test (FRET), EGFR T790M/L858R; format: biochemical; details: EGFR T790M/L858R; read-out: Inhibitory activity of EGFR on kinase (IC50, nM) T790M/L858R
T1 construct: purchased Invitrogen PV4879
Protocol: (§3) EGFR-TK catalyses transfer of one phosphate group of adenosine triphosphate (ATP) to polypeptide substrate, poly(Glu, Tyr)4:1, which is labeled with two fluorescent groups coumarin and fluorescein.
(§4) 2.5 μL of Test Compounds, 5 μL Kinase/Peptide Substrate Mixture, 2.5 μL ATP Solution were added into a 384-well plate, and the 10 μL of reaction system was shaken for 30 s and incubated at room temperature for 1 h. 5 μL of Development Solution was added and the 15 μL of reaction system was shaken for 30 s, and incubated at room temperature for 1 h. […] The inhibitory rates of the compounds at 7 concentration gradients were determined and the IC50 value for each compound was calculated by Origin 8.0 fitting curve.
(§5) 10 concentration gradients from 5.1×10^−11 mol/L to 1.0×10^−6 mol/L were set for all compounds to be tested.
(§6) Compounds were diluted in DMSO for three times from 5.1×10^−9 M to 1×10^−4 M. 4 μL of the compound was dissolved in 96 μL of water to obtain a 4× compound solution. […] The 10 μL kinase reaction consisted of 2.5 μL compound solution, 5 μL kinase/peptide mix, 2.5 μL ATP solution. […] 5 μL of phosphorylated peptide solution, instead of the kinase/peptide mixture, was used as a 100% phosphorylation control. […] The plates were thoroughly mixed and incubated at room temperature for 1.5 hours. 5 μL of Development Solution was added into each well and then incubated for another 1 hour at room temperature, unphosphorylated peptides were cleaved during this period. Finally, 5 μL Stop Reagent was added to quench the reaction. The plates were measured with EnVision Multilabel Reader (Perkin Elmer). The experimental data were calculated using GraphPad Prism version 4.0. Each experiment was repeated more than 3 times.

Wild type EGFR = target: T2, Wild type EGFR (Homo sapiens, UniProt P00533); assay: Kinase activity test (FRET), wild type EGFR; format: biochemical; details: wild type EGFR; read-out: Inhibitory activity of EGFR on kinase (IC50, nM) WT
T2 construct: purchased Invitrogen PV3872
Protocol: as §3, §4, §5, §6

[2] = Determination of solubility in water (PBS 20 mM, pH 6.8); format: physicochemical; details: PBS buffer, aqueous buffer, thermodynamic from solid; pH 6.8, 20 mM PBS; read-out: Solubility (pH 6.8, g/mL)
Protocol: The suspension was filtered through a 0.22 μm PVDF filter, and then diluted to an appropriate concentration with methanol (v=50%) and PBS (v=50%), and the absorbance was measured by a UV spectrophotometer. About 3 mg of compound was accurately weighed, and methanol was added for preparing a stock solution of 1 mg/mL. The above stock solution was taken and prepared into a solution at concentrations of 0.05, 0.04, 0.03, 0.02 and 0.01 mg/mL, respectively, PBS solution (v=50%) was added and the absorbance value was measured. Concentration c (mg/mL) as horizontal ordinate vs absorbance A as longitudinal coordinate was plotted, and a line was fitted for obtaining a standard curve (correlation coefficient greater than 0.998). The solubility of a compound in water was calculated from the standard curve.

[3] = tested on: A431 cells (EGFR wild type); assay: Inhibitory activity on cell proliferation, A431; format: cell-based; details: Homo sapiens, A-431; A431, 72 hours; read-out: Inhibitory activity on proliferation of cells (IC50, μM) A431
Protocol: as §1, §2

T2 sequence (P00533 25-1210): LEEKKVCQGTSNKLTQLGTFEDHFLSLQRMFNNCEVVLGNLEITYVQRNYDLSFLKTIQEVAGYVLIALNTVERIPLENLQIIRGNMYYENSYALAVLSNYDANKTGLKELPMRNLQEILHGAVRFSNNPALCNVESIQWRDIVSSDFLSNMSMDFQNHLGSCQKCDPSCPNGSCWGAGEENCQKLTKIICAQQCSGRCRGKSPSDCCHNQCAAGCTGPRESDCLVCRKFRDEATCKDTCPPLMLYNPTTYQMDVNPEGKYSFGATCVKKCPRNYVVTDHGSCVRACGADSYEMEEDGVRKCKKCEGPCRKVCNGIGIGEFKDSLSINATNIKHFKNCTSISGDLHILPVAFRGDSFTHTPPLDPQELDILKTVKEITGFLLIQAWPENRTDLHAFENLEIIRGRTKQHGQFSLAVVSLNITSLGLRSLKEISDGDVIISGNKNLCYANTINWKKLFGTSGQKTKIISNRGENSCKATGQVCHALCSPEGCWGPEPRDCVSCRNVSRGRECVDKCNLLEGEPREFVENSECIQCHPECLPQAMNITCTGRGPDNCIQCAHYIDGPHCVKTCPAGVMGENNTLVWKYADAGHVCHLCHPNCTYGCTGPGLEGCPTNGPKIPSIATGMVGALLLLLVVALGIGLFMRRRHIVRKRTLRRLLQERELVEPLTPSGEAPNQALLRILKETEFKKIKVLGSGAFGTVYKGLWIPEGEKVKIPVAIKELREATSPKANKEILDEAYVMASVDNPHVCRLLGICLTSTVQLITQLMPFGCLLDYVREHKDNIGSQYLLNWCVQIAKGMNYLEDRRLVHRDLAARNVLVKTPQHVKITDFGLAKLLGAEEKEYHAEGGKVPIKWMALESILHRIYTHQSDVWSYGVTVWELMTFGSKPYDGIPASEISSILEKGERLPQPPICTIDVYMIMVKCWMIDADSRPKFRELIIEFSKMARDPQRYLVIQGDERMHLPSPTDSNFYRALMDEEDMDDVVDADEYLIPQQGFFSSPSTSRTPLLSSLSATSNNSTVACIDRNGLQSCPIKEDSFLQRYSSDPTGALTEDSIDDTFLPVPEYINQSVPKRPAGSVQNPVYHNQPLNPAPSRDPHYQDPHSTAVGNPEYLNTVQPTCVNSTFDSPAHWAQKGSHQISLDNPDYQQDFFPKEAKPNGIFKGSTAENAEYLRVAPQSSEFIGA
T1 sequence (P00533 25-1210 T790M/L858R): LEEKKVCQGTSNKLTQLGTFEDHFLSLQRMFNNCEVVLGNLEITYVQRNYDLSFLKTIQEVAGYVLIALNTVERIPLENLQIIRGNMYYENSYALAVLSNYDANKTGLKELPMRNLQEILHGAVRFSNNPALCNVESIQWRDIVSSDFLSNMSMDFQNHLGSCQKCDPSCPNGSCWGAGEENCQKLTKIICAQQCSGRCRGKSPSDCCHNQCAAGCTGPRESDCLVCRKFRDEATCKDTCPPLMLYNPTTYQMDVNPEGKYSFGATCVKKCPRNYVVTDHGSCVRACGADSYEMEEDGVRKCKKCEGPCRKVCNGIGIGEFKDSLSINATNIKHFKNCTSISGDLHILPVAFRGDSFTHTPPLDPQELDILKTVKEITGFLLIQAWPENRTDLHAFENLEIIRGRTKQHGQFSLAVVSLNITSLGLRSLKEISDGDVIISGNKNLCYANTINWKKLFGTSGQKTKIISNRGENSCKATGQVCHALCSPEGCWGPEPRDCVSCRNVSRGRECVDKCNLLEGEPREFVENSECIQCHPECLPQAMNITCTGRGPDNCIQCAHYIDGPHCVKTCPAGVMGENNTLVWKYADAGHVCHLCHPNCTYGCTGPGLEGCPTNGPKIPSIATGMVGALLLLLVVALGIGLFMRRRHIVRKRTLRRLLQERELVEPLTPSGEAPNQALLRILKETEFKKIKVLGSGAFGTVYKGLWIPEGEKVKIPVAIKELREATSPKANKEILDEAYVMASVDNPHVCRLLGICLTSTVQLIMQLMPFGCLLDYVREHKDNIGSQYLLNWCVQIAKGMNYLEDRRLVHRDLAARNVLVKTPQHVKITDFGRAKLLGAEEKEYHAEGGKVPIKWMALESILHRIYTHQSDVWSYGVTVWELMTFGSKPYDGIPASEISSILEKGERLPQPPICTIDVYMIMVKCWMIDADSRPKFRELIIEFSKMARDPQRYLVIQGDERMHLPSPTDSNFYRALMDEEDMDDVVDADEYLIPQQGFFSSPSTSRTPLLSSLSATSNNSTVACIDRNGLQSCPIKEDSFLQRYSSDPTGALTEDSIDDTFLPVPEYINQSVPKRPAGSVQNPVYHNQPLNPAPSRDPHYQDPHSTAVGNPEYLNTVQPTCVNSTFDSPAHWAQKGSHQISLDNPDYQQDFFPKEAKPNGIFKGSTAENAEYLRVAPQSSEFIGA

SMILES	IC50 [1]	IC50 (EGFR-L858R/T790M)	IC50 (Wild type EGFR)	solubility [2]	IC50 [3]
C=CC(=O)Nc1cccc(-n2c(=O)cnc3cnc(Nc4ccc(N(C)CCN(C)C)cc4OC)nc32)c1 [Compound 18, N-(3-(2-((4-((2-(dimethylamino)ethyl)(methyl)amino)-2-methoxyphenyl)amino)-7-oxo-8(7H)-pteridinyl)phenyl)acrylamide]	0.06 µM	1 nM	47 nM	208 µg/mL (≈ 405 µM)	1.66 µM
C=CC(=O)Nc1cccc(-n2c(=O)c(C(C)C)nc3cnc(Nc4ccc(N(C)CCN(C)C)cc4OC)nc32)c1 [Compound 19, N-(3-(2-((4-((2-(dimethylamino)ethyl)(methyl)amino)-2-methoxyphenyl)amino)-6-isopropyl-7-oxo-8(71-1)-pteridinyl)phenyl)acrylamide]	1.16 µM	14.1 nM	174 nM	90.7 µg/mL (≈ 163 µM)	3.41 µM
C=CC(=O)Nc1cccc(-n2c(=O)c(-c3ccccc3)nc3cnc(Nc4ccc(N(C)CCN(C)C)cc4OC)nc32)c1 [Compound 20, N-(3-(2-((4-((2-(dimethylamino)ethyl)(methyl)amino)-2-methoxyphenyl)amino)-7-oxo-6-phenyl-8(7H)-pteridinyl)phenyl)acrylamide]	0.04 µM	1.3 nM	15 nM	7.4 µg/mL (≈ 12.5 µM)	6 µM
C=CC(=O)N1CCC[C@@H](Cn2c(=O)c(C(C)C)nc3cnc(Nc4ccc(N5CCN(C)CC5)cc4OC)nc32)C1 [Compound 21, (R)-8-((1-acryloyl-3-piperidinyl)methyl)-6-isopropyl-2-((2-methoxy-4-(4-methyl-1-piperazinyl)phenyl)amino)-7(8H)-pteridinone]	4.49 µM	251 nM	2880 nM	72.2 µg/mL (≈ 129 µM)	> 10 µM
C=CC(=O)N1CCC[C@@H](n2c(=O)cnc3cnc(Nc4ccc(N5CCN(C)CC5)cc4OC)nc32)C1 [Compound 22]	> 10 µM	6900 nM	> 10000 nM	3230 µg/mL (≈ 6410 µM)	> 10 µM

Results, then the compound that gave them:

IC50 [1]	IC50 (EGFR-L858R/T790M)	IC50 (Wild type EGFR)	solubility [2]	IC50 [3]	SMILES
1.85 µM	939 nM	1730 nM	1690 µg/mL (≈ 3410 µM)	3.2 µM	C=CC(=O)Nc1cc(Nc2ncc3nc(C(C)C)c(=O)n(C)c3n2)c(OC)cc1N(C)CCN(C)C [Compound 23]
2.49 µM	576 nM	700 nM	2920 µg/mL (≈ 5650 µM)	3.1 µM	C=CC(=O)N1CC[C@H](n2c(=O)c(C(C)C)nc3cnc(Nc4ccc(N5CCN(C)CC5)c(C)c4)nc32)C1 [Compound 24, (S)-8-(1-acryloyl-3-pyrrolidinyl)-6-isopropyl-2-((3-methyl-4-(4-methyl-1-piperazinyl)phenyl)amino)-7(8H)-pteridinone]
0.016 µM	1.5 nM	65.2 nM	56.7 µg/mL (≈ 103 µM)	1.75 µM	C=CC(=O)N1CC[C@H](n2c(=O)c(-c3ccccc3)nc3cnc(Nc4ccc(N5CCN(C)CC5)c(C)c4)nc32)C1 [Compound 25, (S)-8-(1-acryloyl-3-pyrrolidinyl)-2-((3-methyl-4-(4-methyl-1-piperazinyl)phenyl)amino)-6-phenyl-7(8H)-pteridinone]
3.23 µM	559 nM	1300 nM	10500 µg/mL (≈ 19700 µM)	9.5 µM	C=CC(=O)N1CC[C@H](n2c(=O)c(C(C)C)nc3cnc(Nc4ccc(N5CCN(C)CC5)cc4OC)nc32)C1 [Compound 26, (S)-8-(1-acryloyl-3-pyrrolidinyl)-6-isopropyl-2-((2-methoxy-4-(4-methyl-1-piperazinyl)phenyl)amino)-7(8H)-pteridinone]
0.116 µM	3.8 nM	53.7 nM	264 µg/mL (≈ 465 µM)	1.85 µM	C=CC(=O)N1CC[C@H](n2c(=O)c(-c3ccccc3)nc3cnc(Nc4ccc(N5CCN(C)CC5)cc4OC)nc32)C1 [Compound 27, (S)-8-(1-acryloyl-3-pyrrolidinyl)-2-((2-methoxy-4-(4-methyl-1-piperazinyl)phenyl)amino)-6-phenyl-7(8H)-pteridinone]

Source: patent US11306095B2 (EAST CHINA UNIVERSITY OF SCIENCE AND TECHNOLOGY, priority 2015, dated 2022)
